Reference: patent publication US20230263822A1, “MODULATION OF FACTOR 11 EXPRESSION” (Ionis Pharmaceuticals, Inc., priority 2008, published 2023)

Experiments:
[1] = tested on: human Factor 11 mRNA; assay: Dose-dependent inhibition of human Factor 11 in HepG2 cells, electroporation 625-20,000 nM (Example 5); type: cell-based; conditions: ~16 hours
Description: The gapmers were also transfected via electroporation and their dose dependent inhibition of human Factor 11 mRNA was measured. Cells were plated at a density of 20,000 cells per well and transfected via electroporation with 625 nM, 1250 nM, 2500 nM, 5,000 nM, 10,000 nM, and 20,000 nM concentrations of antisense oligonucleotide, as specified in Table 12. After a treatment period of approximately 16 hours, RNA was isolated from the cells and human Factor 11 mRNA levels were measured by quantitative real-time PCR. Human Factor 11 primer probe set RTS 2966 was used to measure mRNA levels. Factor 11 mRNA levels were adjusted according to total RNA content, as measured by RIBOGREEN. Results are presented as percent inhibition of human Factor 11, relative to untreated control cells.

[2] = tested on: human Factor 11 mRNA; assay: Dose-dependent inhibition of human Factor 11 in cyano primary hepatocytes, electroporation (Example 6); type: cell-based; conditions: ~16 hours
Description: Cells were plated at a density of 35,000 cells per well and transfected via electroporation with 0.74 nM, 2.2 nM, 6.7 nM, 20 nM, 60 nM, and 180 nM concentrations of antisense oligonucleotide, as specified in Table 13. After a treatment period of approximately 16 hours, RNA was isolated from the cells and human Factor 11 mRNA levels were measured by quantitative real-time PCR. Human Factor 11 primer probe set RTS 2966 was used to measure mRNA levels. Factor 11 mRNA levels were adjusted according to total RNA content, as measured by RIBOGREEN. Results are presented as percent inhibition of human Factor 11, relative to untreated control cells.

[3] = design: species or system Sprague-Dawley rats; conditions: rat, in vivo
Description: Three days after the last dose, the rats were sacrificed and livers and kidneys were collected for analysis.
The concentration of the full-length oligonucleotide as well as the total oligonucleotide concentration (including the degraded form) was measured. The method used is a modification of previously published methods (Leeds et al., 1996; Geary et al., 1999) which consist of a phenol-chloroform (liquid-liquid) extraction followed by a solid phase extraction. An internal standard (ISIS 355868, a 27-mer 2′-O-methoxyethyl modified phosphorothioate oligonucleotide, […], designated herein as SEQ ID NO: 270) was added prior to extraction. […] The results are presented in Tables 77 and 78, expressed as μg/g liver or kidney tissue. Half-lives were then calculated using WinNonlin software ([…]).

| Substance | percent inhibition of human Factor 11 mRNA relative to untreated control cells ([1]; 625 nM) [%] | percent inhibition of human Factor 11 mRNA relative to untreated control cells ([1]; 1250 nM) [%] | percent inhibition of human Factor 11 mRNA relative to untreated control cells ([1]; 2500 nM) [%] | percent inhibition of human Factor 11 mRNA relative to untreated control cells ([1]; 5000 nM) [%] | percent inhibition of human Factor 11 mRNA relative to untreated control cells ([1]; 10000 nM) [%] | percent inhibition of human Factor 11 mRNA relative to untreated control cells ([1]; 20000 nM) [%] | percent inhibition of human Factor 11 mRNA relative to untreated control cells ([2]; 0.74 nM) [%] | percent inhibition of human Factor 11 mRNA relative to untreated control cells ([2]; 2.2 nM) [%] | percent inhibition of human Factor 11 mRNA relative to untreated control cells ([2]; 6.7 nM) [%] | percent inhibition of human Factor 11 mRNA relative to untreated control cells ([2]; 20 nM) [%] | percent inhibition of human Factor 11 mRNA relative to untreated control cells ([2]; 60 nM) [%] | percent inhibition of human Factor 11 mRNA relative to untreated control cells ([2]; 180 nM) [%] | Half-life in the liver and kidney [3] [days] |
| --- | --- | --- | --- | --- | --- | --- | --- | --- | --- | --- | --- | --- | --- |
| 416838 (antisense GCAACCGGGATGATGAGTGC; 5-10-5 gapmer, further chemistry not given here) [compound 416838] | 66 | 79 | 87 | 90 | 93 | 96 | 0 | 0 | 21 | 34 | 48 | 62 | 13 |
| 416925 (antisense GGTGCACAGTTTCTGGCAGG; 3-14-3 gapmer chemistry, further chemistry not given here) [compound 416925] | 64 | 80 | 88 | 91 | 95 | 96 | 0 | 9 | 1 | 48 | 55 | 76 | 12 |
| 416864 (antisense GGCAGCGGACGGCATTGGTG; 5-10-5 gapmer, further chemistry not given here) [compound 416864] | 45 | 74 | 84 | 87 | 92 | 94 | 0 | 1 | 15 | 23 | 47 | 64 | 13 |
| 416999 (antisense GCACAGTTTCTGGCAGGCCT; 2-13-5 gapmer chemistry, further chemistry not given here) [compound 416999] | 61 | 82 | 89 | 94 | 94 | 97 | 3 | 40 | 36 | 62 | 67 | 82 | 9 |
